What was measured:
[1] = target: Cyclin-dependent kinase 13 (Homo sapiens, UniProt Q14004); assay: Selectivity interaction (KinomeScan (DiscoverX)) EUB0001049a CDK13; conditions: at 1 µM
[2] = target: Ribosomal protein S6 kinase alpha-2 (Homo sapiens) (UniProt Q15349); assay: Selectivity interaction (Kinome Scan (DiscoverX)) EUB0000229b RPS6KA2; conditions: at 10 µM
[3] = target: T1, Mitogen-activated protein kinase kinase kinase 7 (Homo sapiens) (UniProt O43318); assay: Selectivity interaction (Kinase panel (KiNativ target engagement assay in Jurkat cells)) EUB0001635a MAP3K7; assay type: cell-based; conditions: Selectivity number of off-targets 0.0, Selectivity number of targets 233.0, Source Knowledge https://www.sciencedirect.com/science/article/pii/S2451945619300674?via%3Dihub, at 1 µM
T1 sequence (whole entry): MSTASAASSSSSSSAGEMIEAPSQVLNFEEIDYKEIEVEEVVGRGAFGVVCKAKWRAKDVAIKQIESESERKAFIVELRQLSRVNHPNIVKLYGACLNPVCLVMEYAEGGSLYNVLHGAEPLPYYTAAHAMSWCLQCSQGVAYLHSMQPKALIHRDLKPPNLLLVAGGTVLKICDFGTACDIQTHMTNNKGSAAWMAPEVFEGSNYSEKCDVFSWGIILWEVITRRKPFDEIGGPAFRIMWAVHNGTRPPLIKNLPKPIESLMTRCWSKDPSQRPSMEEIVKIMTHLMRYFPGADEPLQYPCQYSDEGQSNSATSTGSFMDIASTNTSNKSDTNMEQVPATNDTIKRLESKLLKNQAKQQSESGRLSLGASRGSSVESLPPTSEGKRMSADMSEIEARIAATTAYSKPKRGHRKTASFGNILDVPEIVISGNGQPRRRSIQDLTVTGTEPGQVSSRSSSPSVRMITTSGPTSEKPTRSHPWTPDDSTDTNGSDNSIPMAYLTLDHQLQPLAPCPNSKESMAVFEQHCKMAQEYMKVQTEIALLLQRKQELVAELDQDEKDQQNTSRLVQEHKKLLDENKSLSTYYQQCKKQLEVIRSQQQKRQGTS

[4] = target: Tyrosine-protein kinase Lck (Homo sapiens, UniProt P06239); assay: Selectivity interaction (KinomeScan (DiscoverX)) EUB0000699a LCK; conditions: at 10 µM
[5] = system: Tyrosine-protein kinase ABL1 (Homo sapiens), P00519 [T315I]; assay: Selectivity interaction (KinomeScan (DiscoverX)) EUB0000045b ABL1; conditions: at 1 µM
[6] = target: T2, Interleukin-1 receptor-associated kinase 4 (Homo sapiens) (UniProt Q9NWZ3); assay: Selectivity interaction (KinomeScan (DiscoverX)) EUB0000618a IRAK4; conditions: at 10 µM
T2 sequence (whole entry): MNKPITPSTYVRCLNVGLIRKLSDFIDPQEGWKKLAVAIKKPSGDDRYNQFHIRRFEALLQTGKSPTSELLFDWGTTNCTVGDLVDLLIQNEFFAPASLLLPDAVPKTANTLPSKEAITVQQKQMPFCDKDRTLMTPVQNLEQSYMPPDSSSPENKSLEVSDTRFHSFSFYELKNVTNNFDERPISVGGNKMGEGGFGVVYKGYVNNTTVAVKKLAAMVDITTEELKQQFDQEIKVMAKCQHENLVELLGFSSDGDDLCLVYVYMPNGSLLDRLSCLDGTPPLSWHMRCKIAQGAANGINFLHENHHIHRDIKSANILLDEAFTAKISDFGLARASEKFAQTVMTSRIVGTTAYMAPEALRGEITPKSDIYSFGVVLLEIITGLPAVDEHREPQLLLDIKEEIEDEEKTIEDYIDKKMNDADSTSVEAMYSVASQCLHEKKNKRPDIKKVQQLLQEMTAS

[7] = target: Serine/threonine-protein kinase PAK 4 (Homo sapiens, UniProt O96013); assay: Selectivity interaction (KinomeScan (DiscoverX)) EUB0000618a PAK4; conditions: at 10 µM
Sequence of Serine/threonine-protein kinase PAK 4 (O96013 whole entry, looked up): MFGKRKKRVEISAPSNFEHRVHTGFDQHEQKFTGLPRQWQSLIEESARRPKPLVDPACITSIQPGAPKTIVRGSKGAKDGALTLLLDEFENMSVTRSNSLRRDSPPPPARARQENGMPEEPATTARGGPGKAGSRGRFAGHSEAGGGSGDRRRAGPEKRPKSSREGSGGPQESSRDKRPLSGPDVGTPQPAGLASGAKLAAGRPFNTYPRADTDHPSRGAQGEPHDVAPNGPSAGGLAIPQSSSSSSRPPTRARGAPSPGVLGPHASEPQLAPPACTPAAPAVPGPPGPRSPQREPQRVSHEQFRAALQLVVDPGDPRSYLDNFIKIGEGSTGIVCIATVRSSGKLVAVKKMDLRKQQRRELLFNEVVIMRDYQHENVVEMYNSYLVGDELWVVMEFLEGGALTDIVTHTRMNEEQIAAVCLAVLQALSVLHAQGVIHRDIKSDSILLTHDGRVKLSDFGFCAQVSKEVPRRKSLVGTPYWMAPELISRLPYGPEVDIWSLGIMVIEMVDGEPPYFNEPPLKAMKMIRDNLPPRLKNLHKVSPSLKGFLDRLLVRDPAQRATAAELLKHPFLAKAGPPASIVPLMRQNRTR

[8] = target: Non-receptor tyrosine-protein kinase TYK2 (Homo sapiens, UniProt P29597); assay: Selectivity interaction (KinomeScan (DiscoverX)) EUB0000655a TYK2; conditions: at 10 µM
Sequence of Non-receptor tyrosine-protein kinase TYK2 (P29597 whole entry): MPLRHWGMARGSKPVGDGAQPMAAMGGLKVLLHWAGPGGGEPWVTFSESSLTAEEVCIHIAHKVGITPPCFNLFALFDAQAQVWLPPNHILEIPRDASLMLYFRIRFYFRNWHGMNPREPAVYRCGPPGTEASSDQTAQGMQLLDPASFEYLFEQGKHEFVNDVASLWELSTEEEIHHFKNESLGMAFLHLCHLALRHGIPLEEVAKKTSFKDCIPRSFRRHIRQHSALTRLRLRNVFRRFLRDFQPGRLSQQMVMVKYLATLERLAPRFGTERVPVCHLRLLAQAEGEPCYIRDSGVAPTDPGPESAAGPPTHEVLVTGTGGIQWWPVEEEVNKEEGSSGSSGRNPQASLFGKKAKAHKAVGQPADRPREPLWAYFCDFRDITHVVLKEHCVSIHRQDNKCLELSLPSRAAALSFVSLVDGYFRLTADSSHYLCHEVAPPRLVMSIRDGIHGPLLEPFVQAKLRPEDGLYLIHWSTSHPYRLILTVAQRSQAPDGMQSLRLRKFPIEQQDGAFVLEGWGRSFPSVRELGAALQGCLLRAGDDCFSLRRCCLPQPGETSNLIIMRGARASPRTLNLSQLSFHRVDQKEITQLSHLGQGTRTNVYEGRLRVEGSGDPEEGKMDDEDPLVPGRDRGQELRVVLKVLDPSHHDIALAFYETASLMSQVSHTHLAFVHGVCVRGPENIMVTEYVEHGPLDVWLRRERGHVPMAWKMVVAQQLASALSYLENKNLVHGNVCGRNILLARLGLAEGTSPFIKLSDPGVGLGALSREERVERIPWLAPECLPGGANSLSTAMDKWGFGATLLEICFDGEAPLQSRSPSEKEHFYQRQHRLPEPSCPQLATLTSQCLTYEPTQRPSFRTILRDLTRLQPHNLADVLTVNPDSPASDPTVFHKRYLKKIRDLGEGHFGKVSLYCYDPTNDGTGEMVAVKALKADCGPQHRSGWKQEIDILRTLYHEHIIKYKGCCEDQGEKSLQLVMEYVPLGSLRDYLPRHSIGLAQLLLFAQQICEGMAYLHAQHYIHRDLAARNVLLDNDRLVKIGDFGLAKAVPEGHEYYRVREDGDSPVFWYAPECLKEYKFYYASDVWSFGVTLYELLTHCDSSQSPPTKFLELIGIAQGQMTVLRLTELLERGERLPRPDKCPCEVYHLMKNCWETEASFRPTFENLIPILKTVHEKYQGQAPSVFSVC

[9] = target: T3, Cyclin-dependent kinase-like 2 (Homo sapiens) (UniProt Q92772); assay: Selectivity interaction (KinomeScan (DiscoverX)) EUB0000655a CDKL2; conditions: at 10 µM
T3 sequence (whole entry): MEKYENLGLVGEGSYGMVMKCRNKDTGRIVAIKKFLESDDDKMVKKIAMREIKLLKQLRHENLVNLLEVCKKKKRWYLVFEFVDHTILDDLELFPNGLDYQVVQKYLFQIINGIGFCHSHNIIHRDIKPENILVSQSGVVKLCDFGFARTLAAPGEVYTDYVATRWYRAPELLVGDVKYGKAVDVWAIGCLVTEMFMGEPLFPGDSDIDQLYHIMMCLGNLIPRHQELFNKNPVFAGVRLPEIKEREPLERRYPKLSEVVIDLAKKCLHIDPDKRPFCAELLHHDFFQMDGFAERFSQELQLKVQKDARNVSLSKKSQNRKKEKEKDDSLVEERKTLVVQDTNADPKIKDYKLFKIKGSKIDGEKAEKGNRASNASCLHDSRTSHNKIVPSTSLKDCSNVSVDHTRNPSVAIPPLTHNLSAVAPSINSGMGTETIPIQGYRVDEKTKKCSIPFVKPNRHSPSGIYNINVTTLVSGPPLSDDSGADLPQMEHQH

[10] = target: Homeodomain-interacting protein kinase 2 (Homo sapiens, UniProt Q9H2X6); assay: Selectivity interaction (KinomeScan (DiscoverX)) EUB0000695a HIPK2; conditions: at 100 nM
[11] = target: Dual specificity protein kinase CLK4 (Homo sapiens, UniProt Q9HAZ1); assay: Selectivity interaction (KinomeScan (DiscoverX)) EUB0000607a CLK4; conditions: at 10 µM
Sequence of Dual specificity protein kinase CLK4 (Q9HAZ1 whole entry, looked up): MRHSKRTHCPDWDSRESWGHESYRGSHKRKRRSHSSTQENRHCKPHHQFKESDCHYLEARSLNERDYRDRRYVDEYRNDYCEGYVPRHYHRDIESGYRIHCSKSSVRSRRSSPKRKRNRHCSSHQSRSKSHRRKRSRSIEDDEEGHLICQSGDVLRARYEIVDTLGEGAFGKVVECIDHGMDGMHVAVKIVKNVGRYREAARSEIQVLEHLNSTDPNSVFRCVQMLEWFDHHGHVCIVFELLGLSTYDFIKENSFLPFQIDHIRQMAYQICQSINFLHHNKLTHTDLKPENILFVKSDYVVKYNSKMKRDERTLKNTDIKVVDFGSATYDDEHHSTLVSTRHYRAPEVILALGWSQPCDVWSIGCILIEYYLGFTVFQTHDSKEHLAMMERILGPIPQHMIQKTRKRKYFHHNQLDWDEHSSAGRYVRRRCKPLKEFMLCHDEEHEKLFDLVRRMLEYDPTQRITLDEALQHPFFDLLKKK

KCNQ1 = KCNQ1 (Homo sapiens, UniProt P51787); assay: Selectivity interaction (Panel of kinases, GPCRs, ion channels and transporters (enzymatic assay)) EUB0000223bCl KCNQ1
Sequence of KCNQ1 (P51787 whole entry): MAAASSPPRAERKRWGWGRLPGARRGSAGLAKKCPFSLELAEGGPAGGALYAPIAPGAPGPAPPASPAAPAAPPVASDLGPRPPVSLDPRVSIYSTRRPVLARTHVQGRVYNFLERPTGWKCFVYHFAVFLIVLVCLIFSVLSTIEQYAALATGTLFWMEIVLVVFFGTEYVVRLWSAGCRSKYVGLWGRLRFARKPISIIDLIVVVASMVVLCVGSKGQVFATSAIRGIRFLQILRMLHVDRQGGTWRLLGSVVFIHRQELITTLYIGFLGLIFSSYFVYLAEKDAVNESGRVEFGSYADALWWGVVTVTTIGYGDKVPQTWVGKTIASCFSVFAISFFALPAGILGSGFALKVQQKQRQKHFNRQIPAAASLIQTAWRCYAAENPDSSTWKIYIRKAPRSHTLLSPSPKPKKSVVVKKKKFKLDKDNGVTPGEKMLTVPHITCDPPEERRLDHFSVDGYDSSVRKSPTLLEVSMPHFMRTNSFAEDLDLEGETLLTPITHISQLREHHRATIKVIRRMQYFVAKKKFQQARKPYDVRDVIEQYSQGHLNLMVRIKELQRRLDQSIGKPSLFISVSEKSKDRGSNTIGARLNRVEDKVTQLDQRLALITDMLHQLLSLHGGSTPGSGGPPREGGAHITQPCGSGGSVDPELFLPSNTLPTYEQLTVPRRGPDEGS

[12] = target: Receptor-type tyrosine-protein kinase FLT3 (Homo sapiens) (UniProt P36888); assay: Selectivity interaction (ProQinase) EUB0000171b FLT3; conditions: at 5 µM
Sequence of Receptor-type tyrosine-protein kinase FLT3 (Homo sapiens) (P36888 whole entry): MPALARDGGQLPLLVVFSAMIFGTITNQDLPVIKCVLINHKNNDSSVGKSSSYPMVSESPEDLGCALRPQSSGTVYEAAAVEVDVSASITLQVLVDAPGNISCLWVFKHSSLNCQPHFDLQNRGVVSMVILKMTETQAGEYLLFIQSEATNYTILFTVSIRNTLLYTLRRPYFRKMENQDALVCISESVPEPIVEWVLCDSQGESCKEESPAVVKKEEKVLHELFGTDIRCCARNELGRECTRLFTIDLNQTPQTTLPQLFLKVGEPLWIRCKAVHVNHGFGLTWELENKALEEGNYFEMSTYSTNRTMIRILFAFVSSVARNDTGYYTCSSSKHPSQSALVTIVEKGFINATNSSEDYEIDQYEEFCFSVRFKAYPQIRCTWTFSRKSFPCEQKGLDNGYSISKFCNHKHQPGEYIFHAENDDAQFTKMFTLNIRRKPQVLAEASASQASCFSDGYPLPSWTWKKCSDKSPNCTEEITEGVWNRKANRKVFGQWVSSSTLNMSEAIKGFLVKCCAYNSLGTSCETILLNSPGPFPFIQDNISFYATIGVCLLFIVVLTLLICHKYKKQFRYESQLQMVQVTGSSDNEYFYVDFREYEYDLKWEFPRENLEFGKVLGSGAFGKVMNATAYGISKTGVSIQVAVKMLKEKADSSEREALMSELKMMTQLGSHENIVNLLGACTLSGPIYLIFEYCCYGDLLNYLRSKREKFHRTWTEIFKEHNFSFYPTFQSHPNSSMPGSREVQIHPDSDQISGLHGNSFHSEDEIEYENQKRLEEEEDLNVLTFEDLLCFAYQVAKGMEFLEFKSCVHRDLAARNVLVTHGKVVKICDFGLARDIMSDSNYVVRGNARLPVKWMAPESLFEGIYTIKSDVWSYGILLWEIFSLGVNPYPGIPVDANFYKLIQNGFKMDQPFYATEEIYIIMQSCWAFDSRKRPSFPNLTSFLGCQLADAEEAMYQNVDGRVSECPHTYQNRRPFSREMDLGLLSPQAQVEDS

Sequence of Ribosomal protein S6 kinase alpha-2 (Homo sapiens) (Q15349 whole entry): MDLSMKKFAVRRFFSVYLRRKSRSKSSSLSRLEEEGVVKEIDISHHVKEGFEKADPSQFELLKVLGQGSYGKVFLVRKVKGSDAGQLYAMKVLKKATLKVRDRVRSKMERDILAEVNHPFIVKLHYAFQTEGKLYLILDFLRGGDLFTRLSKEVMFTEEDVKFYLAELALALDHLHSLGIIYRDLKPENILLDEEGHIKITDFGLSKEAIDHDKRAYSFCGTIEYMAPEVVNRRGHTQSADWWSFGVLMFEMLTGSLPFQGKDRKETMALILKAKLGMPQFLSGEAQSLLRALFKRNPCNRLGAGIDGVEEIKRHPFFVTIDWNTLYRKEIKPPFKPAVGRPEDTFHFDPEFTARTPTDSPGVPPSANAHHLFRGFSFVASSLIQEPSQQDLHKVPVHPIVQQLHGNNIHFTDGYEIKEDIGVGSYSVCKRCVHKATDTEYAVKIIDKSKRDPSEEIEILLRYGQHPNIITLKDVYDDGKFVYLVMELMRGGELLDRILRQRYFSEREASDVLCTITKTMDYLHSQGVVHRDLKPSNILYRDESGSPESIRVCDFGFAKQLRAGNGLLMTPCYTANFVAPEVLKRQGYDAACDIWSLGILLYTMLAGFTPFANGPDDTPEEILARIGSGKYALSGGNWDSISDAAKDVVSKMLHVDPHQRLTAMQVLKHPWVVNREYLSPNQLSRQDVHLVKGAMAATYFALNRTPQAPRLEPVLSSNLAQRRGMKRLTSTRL

COc1cc(Nc2nc(C)cc(-c3cnn4nc(OC)ccc34)n2)cc(C(F)(F)F)c1 showed a % of control [1] of 100%.
In the case of COc1cc(N(C)c2ccnc3ccc(C(F)(F)F)cc23)cc(OC)c1OC, the % binding [2] was 84%.
In the case of C=CC(=O)Nc1ccc(C(=O)Nc2[nH]nc3c2CN(C(=O)N[C@H](CN(C)C)c2ccccc2)C3(C)C)cc1, the % of engagement [3] was -4.8%.
CCN(CC)CCCCNc1ncc2cc(-c3cc(OC)cc(OC)c3)c(NC(=O)NC(C)(C)C)nc2n1 gave a % of control [4] of 22%.
C=CC(=O)Nc1cc(-n2c(=O)ccc3cnc4ccc(-c5ccc(NS(C)(=O)=O)cc5)cc4c32)ccc1C gave a % of control [5] of 87%.
With O[C@H]1CC[C@H](Nc2ncc3nc(Nc4c(F)cc(F)cc4F)n([C@H]4CCOC4)c3n2)CC1 the % of control [6] was 94% and the % of control [7] was 100%.
In the case of CN(C)CCOc1ccc(-c2nc(-c3ccncc3)c(-c3ccc4c(c3)CC/C4=N\O)[nH]2)cc1, the % of control [8] was 52% and the % of control [9] was 100%.
Work on Cc1cc(F)c(C(=O)Nc2cccc(-c3nncn3C(C)C)n2)cc1-n1cnc(C2CC2)c1 yielded a % of control [10] of 83%.
CNC(=O)Nc1ccc(-c2nc(N3CC4CCC(C3)O4)c3cnn(C4CCC5(CC4)OCCO5)c3n2)cc1 was tested, and the % of control [11] was 88%.
For COc1cc(C(=O)N2CC[C@@H](O)[C@@H](N)C2)cc2nc(-c3cc4ccccc4n3CC3CC3)n(C)c12, the XC50 (KCNQ1) was greater than 25.1 µM.
In the case of C=CC(=O)Nc1cccc(C(=O)Nc2ccc(Nc3cc(-c4[nH]c(SC)nc4C)ccn3)cc2)c1, the % of control [12] was 62%.

Reference: ChEMBL document CHEMBL5465560, “Selectivity Literature for EUbOPEN Chemogenomic Library” (2024)
